Measurements published in article PMC10891067, “A co-assembly platform engaging macrophage scavenger receptor A for lysosome-targeting protein degradation” (Nature Communications, 2024).
Residues, ends and D or L forms follow the SMILES beside them. *: point of attachment. Fmoc = O=C(OCC1c2ccccc2-c2ccccc21)*; Ahx = NCCCCCC(=O)O

Key:
[1] = molecular target: T1, IL-17A (Mus musculus, UniProt Q62386); assay: Lysosome inhibition assay (LPT, BafA1); assay type: cell-based; set-up: host or cells: added exogenously to RAW264.7, SR-A-KO RAW264.7, U-118 MG, DC 2.4 or HaCaT cells; conditions: RAW264.7, 0.5 μg/ml IL-17A + 50 μM 17A-Lytaca, 6 h
T1 sequence (Q62386 26-158): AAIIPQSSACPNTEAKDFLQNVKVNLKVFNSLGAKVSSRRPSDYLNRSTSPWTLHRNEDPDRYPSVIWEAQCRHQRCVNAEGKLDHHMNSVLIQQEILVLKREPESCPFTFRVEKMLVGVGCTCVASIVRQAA
Description: To confirm the involvement of lysosomes, RAW264.7 cells were pretreated with PBS, LPT (0.1 mg/ml), or BafA1 (100 nM) for 2 h at 37 °C. […] The accumulation of IL-17A in the cells was then measured via flow cytometry, following the aforementioned procedure.

[2] = Serum clearance kinetics of 17A-Lytaca relevant peptides; assay type: in vivo, mouse; conditions: healthy mice, i.p. Cy-labeled 17A-Lytaca (Cy5-fm-17Abp 15 mg/kg, Cy3-fm-SRAL 22 mg/kg), IVIS, n = 3
Description: Serum samples were collected at 0, 1, 2, 3, 4, 8, 12, and 24 h for analysis. The fluorescence intensity of serum was measured with the in vivo imaging system (IVIS) spectrum.

[3] = In vivo localization and clearance assay of 17A-Lytaca (IVIS); set-up: species or system mouse; conditions: psoriasis mice, i.p. Cy-labeled 17A-Lytaca (Cy5-fm-17Abp 5 mg/kg, Cy7-fm-SRAL 7.3 mg/kg)
Description: Fluorescence imaging in both the Cy5 and Cy7 channels was conducted using the in vivo imaging system (IVIS Spectrum) at 4, 8, 12, 24, and 48 h post-injection. Further, for biodistribution assessment, mice were sacrificed at 6 h post-injection, and skins along with major organs (heart, liver, spleen, lung, and kidney) were removed for ex vivo fluorescence imaging.

[4] = molecular target: T1, IL-17A; assay: IL-17A binding competition experiment with IL-17RA (IL-17A uptake); assay type: cell-based; set-up: host or cells: added exogenously to RAW264.7, SR-A-KO RAW264.7, U-118 MG, DC 2.4 or HaCaT cells; conditions: RAW264.7, with fi-SRAL and fi-17Abp mixture and IL-17A
Description: To verify the binding of the IL-17A by mixed fi-17Abp and fi-SRAL, RAW264.7 cells were treated with 0.5 μg/ml IL-17A, 50 μM mixed fi-SRAL and fi-17Abp and IL-17RA at 0, 0.0125, 0.025, 0.05, 0.1, or 0.2 μg/ml for 6 h. Then, flow cytometry analysis was used to measure the intracellular IL-17A level according to the procedure mentioned above.

CO/C1=C\C(C)=C\[C@@H](C)[C@@H](O)[C@@H](C)C/C(C)=C/C=C/[C@H](OC)[C@@H]([C@@H](C)[C@@H](O)[C@H](C)[C@@]2(O)C[C@@H](O)[C@H](C)[C@@H](C(C)C)O2)OC1=O [BafA1, Bafilomycin A1]
IL-17A accumulation in cells with lysosome inhibitor (in words) [1]: significantly higher IL-17A accumulation in cells

CC(=O)N[C@@H](CC(C)C)C(=O)N[C@@H](CC(C)C)C(=O)N[C@H](C=O)CCCNC(=N)N [LPT, Leupeptin]
IL-17A accumulation in cells with lysosome inhibitor (in words) [1]: significantly higher IL-17A accumulation in cells

C[C@H](NC(=O)[C@H](CCC(=O)O)NC(=O)[C@H](C)NC(=O)[C@H](CCC(=O)O)NC(=O)[C@H](C)NC(=O)[C@H](CCC(=O)O)NC(=O)[C@H](C)NC(=O)[C@H](CCC(=O)O)NC(=O)[C@H](C)NC(=O)[C@H](CCC(=O)O)NC(=O)[C@H](C)NC(=O)[C@H](CCC(=O)O)NC(=O)[C@H](C)NC(=O)[C@H](CCC(=O)O)NC(=O)[C@H](C)NC(=O)[C@H](CCC(=O)O)NC(=O)[C@H](C)NC(=O)[C@H](CCC(=O)O)NC(=O)[C@H](C)NC(=O)[C@H](CCC(=O)O)NC(=O)[C@H](C)NC(=O)[C@H](CCC(=O)O)NC(=O)[C@H](C)NC(=O)[C@H](CCC(=O)O)NC(=O)[C@H](C)NC(=O)[C@H](CCC(=O)O)NC(=O)[C@H](C)NC(=O)[C@H](CCC(=O)O)NC(=O)[C@H](C)NC(=O)[C@H](CCC(=O)O)NC(=O)CCCCCNC(=O)OCC1c2ccccc2-c2ccccc21)C(N)=O [fm-SRAL] ({Fmoc-Ahx}-EAEAEAEAEAEAEAEAEAEAEAEAEAEAEA-NH2)
Time up to which the serum fluorescent signal was detectable [2]: ≤ 8 h
Time up to which the peptide remained detectable in vivo [3]: 48 h

IL-17RA: IL-17A receptor protein used as competitor for the 17Abp binding domain of IL-17A
Effect on intracellular IL-17A signal (in words) [4]: concentration-dependent attenuation
